According to publication PMC8374946 (European journal of pharmacology, 2021):
pEC50: −log10 of the molar value.

Tests used:
[1] = system: nontransfected HEK293T cells; experiment: Ca2+ fluorescent assay in nontransfected HEK293T cells; format: cell-based; conditions: 10 µM for XLR-11, UR-144, AM1220
human TRPV1 channel = human TRPV1 channel (Homo sapiens, UniProt Q8NER1); experiment: TRPV1 channel Ca2+ fluorescent; format: cell-based; conditions: for TRPV1 channel Ca2+ signal Emax: normalized to signal with 1 µM capsaicin, HEK293T-TRPV1 cells
TRPV1 channels = conditions: read-out: EC50 for TRPV1 channel activation; ref Soethoudt et al., 2017; cited from earlier work
[2] = molecular target: human cannabinoid type-1 (CB1) receptor (Homo sapiens, UniProt P21554); format: cell-based
Chain of human cannabinoid type-1 (CB1) receptor (P21554 whole entry): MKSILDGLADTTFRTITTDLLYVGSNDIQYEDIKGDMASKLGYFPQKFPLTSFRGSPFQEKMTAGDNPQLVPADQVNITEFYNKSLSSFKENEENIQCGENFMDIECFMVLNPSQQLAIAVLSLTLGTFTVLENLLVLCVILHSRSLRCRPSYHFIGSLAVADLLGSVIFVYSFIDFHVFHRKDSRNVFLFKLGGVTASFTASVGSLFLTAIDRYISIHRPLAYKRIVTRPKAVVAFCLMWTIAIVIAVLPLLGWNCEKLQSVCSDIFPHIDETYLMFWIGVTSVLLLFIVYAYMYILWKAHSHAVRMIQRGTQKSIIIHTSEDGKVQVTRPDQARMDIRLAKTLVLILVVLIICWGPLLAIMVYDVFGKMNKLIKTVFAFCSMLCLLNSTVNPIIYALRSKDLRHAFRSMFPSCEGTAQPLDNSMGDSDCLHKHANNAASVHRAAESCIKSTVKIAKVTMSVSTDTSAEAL

Chain of human TRPV1 channel (Q8NER1 whole entry): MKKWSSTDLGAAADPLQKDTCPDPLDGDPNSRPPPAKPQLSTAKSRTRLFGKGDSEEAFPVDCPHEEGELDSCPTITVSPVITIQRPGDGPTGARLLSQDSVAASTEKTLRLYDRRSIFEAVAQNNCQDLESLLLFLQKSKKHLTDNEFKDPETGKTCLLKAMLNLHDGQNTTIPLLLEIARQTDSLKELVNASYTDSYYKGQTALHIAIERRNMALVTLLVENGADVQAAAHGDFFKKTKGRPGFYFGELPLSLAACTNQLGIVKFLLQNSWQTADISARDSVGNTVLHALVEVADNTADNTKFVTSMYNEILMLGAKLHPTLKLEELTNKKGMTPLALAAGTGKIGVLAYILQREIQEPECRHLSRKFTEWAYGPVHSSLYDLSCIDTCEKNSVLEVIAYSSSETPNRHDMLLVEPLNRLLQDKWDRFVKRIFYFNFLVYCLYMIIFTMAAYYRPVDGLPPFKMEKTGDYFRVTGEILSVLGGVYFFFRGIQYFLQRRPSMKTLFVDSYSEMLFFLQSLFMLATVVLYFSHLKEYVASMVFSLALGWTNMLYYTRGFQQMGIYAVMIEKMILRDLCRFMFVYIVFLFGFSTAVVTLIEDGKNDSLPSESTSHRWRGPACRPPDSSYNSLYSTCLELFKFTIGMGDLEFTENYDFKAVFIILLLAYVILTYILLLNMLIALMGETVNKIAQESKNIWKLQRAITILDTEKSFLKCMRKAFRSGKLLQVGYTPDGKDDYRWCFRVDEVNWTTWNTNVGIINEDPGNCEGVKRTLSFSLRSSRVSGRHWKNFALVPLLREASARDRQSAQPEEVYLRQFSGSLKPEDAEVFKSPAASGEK

For CCCCCn1cc(C(=O)C2C(C)(C)C2(C)C)c2ccccc21 [UR-144], the “Ca2+ transients in nontransfected HEK293T cells” value (“Ca2+ transients” below) [1] was “not observed” and the “TRPV1 channel Ca2+ signal Emax” value (human TRPV1 channel) was 0.23.
With CCCCC/C=C\C/C=C\C/C=C\C/C=C\CCCC(=O)NCCO [AEA, N-arachidonoylethanolamine] the “Ca2+ transients” value [1] was “not observed”, the pEC50 (human TRPV1 channel) was 5.68 and the “TRPV1 channel Ca2+ signal Emax” value (human TRPV1 channel) was 0.35.
For CN1CCCCC1Cn1cc(C(=O)c2cccc3ccccc23)c2ccccc21 (stereo not drawn) [AM1220], the “Ca2+ transients” value [1] was “not observed” and the “TRPV1 channel Ca2+ signal Emax” value (human TRPV1 channel) was 0.26.
For COc1cc(CNC(=O)CCCC/C=C/C(C)C)ccc1O [capsaicin], the “Ca2+ transients” value [1] was “not observed”.
For CCCC(C)(C)c1ccc2c(c1)OC(C)(C)[C@@H]1CC=C(C)C[C@@H]21 [JWH-133], the pEC50 (TRPV1 channels) is listed as 5.09 and the “CB1 receptor-mediated activation of the GIRK channels” value [2] is listed as “no CB1 receptor-mediated activation”.
For CC1(C)C(C(=O)c2cn(CCCCCF)c3ccccc23)C1(C)C [XLR-11], the “Ca2+ transients” value [1] was “not observed” and the “TRPV1 channel Ca2+ signal Emax” value (human TRPV1 channel) was 0.39.
